These results are taken from patent US9334267B2, “RAF inhibitor compounds” (Deciphera Pharmaceuticals, LLC, priority 2012, dated 2016).

The test system of experiment [1] is Sk-Mel-2 cells. Briefly: SK-Mel-2 cell proliferation assay (resazurin). The experiment is classed as cell-based. The following applies: Homo sapiens, N-Ras mutation B-Raf wild type, read-out: Cell Proliferation Inhibition IC50, nM SK-Mel-2.
Experiment [2] addresses T1, human wild type C-Raf (Homo sapiens, UniProt P04049).
T1 construct: made in house
As to the kind of experiment: Enzymatic assay of C-Raf kinase activity (Raf/MEK1 ATPase, coupled PK/LDH, A340). The format is biochemical. The following applies: read-out: Enzyme IC50, nM C-Raf.

The subject of experiment [3] is HT-29 cells. As to the kind of experiment: HT-29 cell proliferation assay (resazurin). The format is cell-based. Conditions: Homo sapiens, V600E mutation, read-out: Cell Proliferation Inhibition IC50, nM HT-29.
Experiment [4] has as its system HCT-116 cells. As to the kind of experiment: HCT-116 cell proliferation assay (resazurin). The format is cell-based. The following applies: Homo sapiens, K-Ras mutation B-Raf wild type, read-out: Cell Proliferation Inhibition IC50, nM HCT-116.
The subject of experiment [5] is Colo205 cells. Briefly: Colo-205 cell proliferation assay (resazurin). The following applies: Homo sapiens; Colo-205 cells, V600E mutation; read-out: Cell Proliferation Inhibition IC50, nM Colo-205. The format is cell-based.

Molecules are shown by their SMILES. Where only a bound is given, the exact number is not on record here.

T1 sequence (P04049 whole entry): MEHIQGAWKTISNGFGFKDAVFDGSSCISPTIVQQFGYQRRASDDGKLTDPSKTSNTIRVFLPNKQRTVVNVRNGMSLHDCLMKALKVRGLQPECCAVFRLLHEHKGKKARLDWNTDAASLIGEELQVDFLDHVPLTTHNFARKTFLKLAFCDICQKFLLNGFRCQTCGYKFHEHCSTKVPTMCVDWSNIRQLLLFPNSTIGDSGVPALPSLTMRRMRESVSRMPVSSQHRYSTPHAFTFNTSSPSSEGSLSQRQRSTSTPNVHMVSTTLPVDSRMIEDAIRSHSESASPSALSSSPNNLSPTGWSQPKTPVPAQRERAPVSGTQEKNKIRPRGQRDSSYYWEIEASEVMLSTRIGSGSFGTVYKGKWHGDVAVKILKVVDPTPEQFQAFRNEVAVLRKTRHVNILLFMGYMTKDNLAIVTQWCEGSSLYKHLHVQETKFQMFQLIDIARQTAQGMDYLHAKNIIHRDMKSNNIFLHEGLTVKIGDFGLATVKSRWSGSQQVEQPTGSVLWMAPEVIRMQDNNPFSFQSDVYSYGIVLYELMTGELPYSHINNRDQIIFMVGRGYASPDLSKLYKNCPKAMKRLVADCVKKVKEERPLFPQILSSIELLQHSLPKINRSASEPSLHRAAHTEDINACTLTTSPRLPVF

In the case of `CNc1ncc2cc(-c3cc(NC(=O)NCCC(C)(C)C)c(F)cc3C)cnc2n1` [Example 35, 1-(3,3-Dimethylbutyl)-3-[2-fluoro-4-methyl-5-(2-methylaminopyrido[2,3-d]pyrimidin-6-yl)phenyl]urea], the IC50 was below 100 nM in experiment [1]; below 150 nM in experiment [2]; below 100 nM in experiment [3]; 100 to 1000 nM in experiment [4]; below 100 nM in experiment [5].

As for `CNc1ncc2cc(-c3cc(NC(=O)NCCC(C)(C)C)c(F)cc3F)cnc2n1` [Example 36, 1-(2,4-Difluoro-5-(2-(methylamino)pyrido[2,3-d]pyrimidin-6-yl)phenyl)-3-(3,3-dimethylbutyl)urea methanesulfonate], the IC50 was 1000 to 10000 nM in experiment [1]; below 150 nM in experiment [2]; 100 to 1000 nM in experiment [3]; 1000 to 10000 nM in experiment [4]; 1000 to 10000 nM in experiment [5].
